For series [1], the system named is P. aeruginosa PA14. Nature of the series: static peg (Calgary Biofilm Device) anti-biofilm assay, crystal violet and OD600.
For series [2], the system named is C. albicans SC5314 + S. aureus SH1000. Nature of the series: mixed C. albicans/S. aureus biofilm assay, selective plating. The format is cell-based, Candida albicans; Staphylococcus aureus. To be noted: 37° C.; for CFUs % survival S.a.: S. aureus in mixed biofilm with C. albicans. As to the method: Overnight cultures of C. albicans SC5314 (YPD, 30° C.) and S. aureus SH1000 (LB, 37° C.) were washed with PBS, after which they were diluted in RPMI medium to obtain cell suspensions of 10^6 cells/ml for fungal cells and 10^8 cells/ml for bacteria. Equal volumes of these cell suspensions were mixed, and 100 μl of this mixed cell suspension together with compound was added to the wells of a microtiter plate in triplicate. The concentrations 25 μM (0.0625% DMSO or ethanol) and 100 μM (0.25% DMSO or ethanol) were tested. The plates were incubated at 37° C. for 90 min. After incubation the wells were washed twice with PBS, and 200 μl of the fresh RPMI medium with or without compounds was added in triplicate to the wells. After 24 h incubation at 37° C. the medium was removed and the biofilm was washed with PBS. Next, the cells were re-suspended in 100 μl of PBS by scraping off, sonication (1 min, 45 kHz, USC300-T; VWR, Radnor, Pa., USA) and vigorously pipetting up-and-down. Finally, dilution series were made, and quantification of S. aureus SH1000 and C. albicans SC5314 populations was performed using selective plating on TSA plates containing 25 mg/L amphotericin B and YPD plates containing 100 μg/ml tetracycline, respectively. The percentage of C. albicans SC5314 and S. aureus SH1000 cells was determined relative to the DMSO or ethanol control treatment.

Series [3] deals with E. coli TG1 + P. aeruginosa PA14. Nature of the series: mixed E. coli/P. aeruginosa biofilm assay, crystal violet. The format is cell-based. To be noted: 37° C. (Table 3). As to the method: Overnight cultures of E. coli TG1 and P. aeruginosa PA14, were diluted 1/100 in the same vial of TSB 1/20 to form a mixed culture suspension.
The subject of series [4] is Caenorhabditis elegans. To be noted: as previously reported; cited from earlier work.
For series [5], the system named is eukaryotic tumor cell lines. The conditions noted are these: as previously reported; cited from earlier work.
Series [6] concerns bone cells. To be noted: as previously reported; cited from earlier work.
Setting [7] is: read-out: BIC50, biofilm formation, 25° C.
[8] abbreviates: read-out: BIC50, biofilm formation, 37° C.
The mark [9] stands for this setting: C. albicans in mixed biofilm with S. aureus SH1000, 25 μM.
Where [10] appears, read: C. albicans in mixed biofilm with S. aureus SH1000, 100 μM.
Where [11] appears, read: mixed biofilm formation, read-out: BIC50.
The mark [12] stands for this setting: planktonic growth of mixed culture, read-out: IC50.

Like-named read-outs stand apart in the source and are kept apart here. Marks after values point to notes of the source that are not given here.

With `CC(C)CNc1ncc(-c2ccc(Cl)cc2)[nH]1` [Compound 3], the IC50 in series [1] (planktonic growth, 37° C.) is over 400 µM; in series [1] (setting [7]) it was 0.9 µM; in series [1] (setting [8]), over 400 µM; in series [3] (setting [11]) it was 7.4 µM; in series [3] (setting [12]), over 400 µM. For the same compound, the “CFUs % survival C.a.” value in series [2] (setting [9]) is 165.7%; in series [2] (setting [10]), 141.3%. The “CFUs % survival S.a.” value in series [2] (25 μM) is on record as 124.6%; in series [2] (100 μM), 51.8* %.

As to `Clc1ccc(-c2cnc(NC3CCCC3)[nH]2)cc1` [Compound 5], the IC50 was over 400 µM in series [1] (planktonic growth, 37° C.); 13.5 µM in series [1] (setting [7]); over 400 µM in series [1] (setting [8]); 0.5 µM in series [3] (setting [11]); over 400 µM in series [3] (setting [12]). Moreover, the “CFUs % survival C.a.” value in series [2] (setting [9]) was determined as 232.4%; in series [2] (setting [10]), 120.6%. The entries for the “CFUs % survival S.a.” value in series [2] (25 μM) and in series [2] (100 μM) were 75.4% and 74.5* %, respectively.

In the case of `CCCCCCCCn1c(-c2ccc(Cl)cc2)cnc1N` [Compound 2], the “toxicity (in words)” value in series [4], in series [5] and in series [6] was “strong toxicity” each time. For the same compound, the IC50 in series [1] (planktonic growth, 37° C.) was 10 µM; in series [1] (setting [7]) it was 4 µM; in series [1] (setting [8]) it was 118 µM; in series [3] (setting [11]), 36.8 µM; in series [3] (setting [12]) it was 19.9 µM. Moreover, the entries for the “CFUs % survival C.a.” value in series [2] (setting [9]) and in series [2] (setting [10]) were 183.8% and 0.9* %, respectively. The “CFUs % survival S.a.” value in series [2] (25 μM) is reported as 87.7%; in series [2] (100 μM), 0.2* %.
